Values quoted from earlier work in patent US20110021553A1, “IMMUNOSUPPRESSIVE MACROLIDE POWDER FOR ORAL SUSPENSION” (priority 2008, published 2011).

Legend:
[1] = tested on: albumin and α1-glicoprotein; settings: mainly albumin and α1-glicoprotein
[2] = tested on: skin mast cells, basophils and eosinophils; settings: in vitro
[3] = not given; remark: listed apart in the source
[4] = main metabolites via CYP3A4

SMILES	combination to proteins [1] [%]	release of mediators [2]	excreted in unaltered state through urine (human, in vivo)	elimination through bile (main channel of elimination)	Bioavailability (oral, reduced with the presence of food)	time to concentration in steady state (orally 0.3 mg/Kg/day, liver transplant patients, majority of the cases) [days]	solubility in organic solvents ([3]; methanol, ethanol, acetone, ethyl acetate, chloroform and diethyl ether)	solubility in water ([3]; water)	immunosuppressive effect [4]
C=CC[C@@H]1/C=C(\C)C[C@H](C)C[C@H](OC)[C@H]2O[C@@](O)(C(=O)C(=O)N3CCCC[C@H]3C(=O)O[C@H](/C(C)=C/[C@@H]3CC[C@@H](O)[C@H](OC)C3)[C@H](C)[C@@H](O)CC1=O)[C@H](C)C[C@@H]2OC (relative stereo) [Tacrolimus, [3S-[3R*[E(1S*,3S*,4S*)], 4S*,5R*,8S*,9E,12R*,14R*,15S*,16R*,18S*,19S*,26aR*]]-5,6,8,11,12,13,14,15,16,17,18,19,24,25,26,26a-hexadecahydro-5,19-dihydroxy-3-[2-(4-hidroxy-3-metoxy-cyclohexyl)-1-metyletenyl]-14,16-dimethoxy-4,10,12,18-tetramethyl-8-(2-propenyl)-15,19-epoxy-3H-pyrido [2,1-c] [1,4] oxazacyclotricosine-1,7,20,21 (4H, 23H)-tetraone, monohydrate]	99	decreases the release of the mediators	less than 1%	more than 90%	4-89%	3	soluble	insoluble	
C=CCC1C=C(C)CC(C)CC(OC)C2OC(O)(C(=O)C(=O)N3CCCCC3C(=O)OC(C(C)=CC3CCC(O)C(OC)C3)C(C)C(O)CC1=O)C(C)CC2O (stereo not shown) [13-O-desmethyl tacrolimus]									neither of which have a measurable immunosuppresive effect
C=CCC1C=C(C)CC(C)CC(O)C2OC(O)(C(=O)C(=O)N3CCCCC3C(=O)OC(C(C)=CC3CCC(O)C(OC)C3)C(C)C(O)CC1=O)C(C)CC2OC (stereo not shown) [15-O-desmethyl tacrolimus]									neither of which have a measurable immunosuppresive effect
